# Where two headings read alike, the source gives them in different places.
# Experiments:
# 17β-HSD3 [1] = target: T1, 17β-HSD3 (Homo sapiens, UniProt P37058); assay: Inhibition of 17β-HSD3 in intact HEK-293 cells; type: cell-based; details: for inhibition at 0.1 µM: HEK293, 1 h
# T1 construct: expressed in transfected cells; host or cells: HEK-293 (homogenate)
# T1 sequence (P37058 1-310): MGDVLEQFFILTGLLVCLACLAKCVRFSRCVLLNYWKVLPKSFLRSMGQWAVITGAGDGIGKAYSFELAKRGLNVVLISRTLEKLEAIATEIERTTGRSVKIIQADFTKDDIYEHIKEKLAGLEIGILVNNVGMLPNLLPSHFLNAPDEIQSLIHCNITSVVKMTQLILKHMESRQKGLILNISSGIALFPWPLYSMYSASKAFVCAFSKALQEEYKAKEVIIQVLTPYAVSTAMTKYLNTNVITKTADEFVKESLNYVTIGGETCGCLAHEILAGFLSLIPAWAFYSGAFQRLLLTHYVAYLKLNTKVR
# 17β-HSD3 [2] = target: T1, 17β-HSD3; assay: Inhibition of 17β-HSD3 in homogenated HEK-293 cells; type: biochemical
# [3] = Table 3, read-out: Intact cells (%) (0.1 μM)
# [4] = Table 3, read-out: Homo (%) (0.01 μM)
# [5] = Table 3, read-out: Homo (%) (0.1 μM)
compound,measurement,setting,value
"C[C@]12CC[C@](O)(CN3CCN(Cc4cc(C(F)(F)F)ccc4C(F)(F)F)CC3)C[C@@H]1CC[C@@H]1[C@@H]2CC[C@]2(C)C(=O)CC[C@@H]12 [Compound 10h, (3α,5α)-3-({4-[2,5-bis(trifluoromethyl)benzyl]piperazin-1-yl}methyl)-3-hydroxyandrostan-17-one]",Intact cells (%) (0.1 μM),17β-HSD3 [1]; Table 3,12%
same,Homo (%) (0.01 μM),17β-HSD3 [2]; Table 3,18%
same,Homo (%) (0.1 μM),17β-HSD3 [2]; Table 3,85%
"C[C@]12CC[C@](O)(CN3CCN(Cc4ccc(C(F)(F)F)cc4C(F)(F)F)CC3)C[C@@H]1CC[C@@H]1[C@@H]2CC[C@]2(C)C(=O)CC[C@@H]12 [Compound 10i, (3α,5α)-3-({4-[2,4-bis(trifluoromethyl)benzyl]piperazin-1-yl}methyl)-3-hydroxyandrostan-17-one]",Intact cells (%) (0.1 μM),17β-HSD3 [1]; Table 3,16%
same,Homo (%) (0.01 μM),17β-HSD3 [2]; Table 3,22%
same,Homo (%) (0.1 μM),17β-HSD3 [2]; Table 3,75%
"C[C@]12CC[C@](O)(CN3CCN(Cc4cc(C(F)(F)F)cc(C(F)(F)F)c4)CC3)C[C@@H]1CC[C@@H]1[C@@H]2CC[C@]2(C)C(=O)CC[C@@H]12 [Compound 10j, (3α,5α)-3-({4-[3,5-bis(trifluoromethyl)benzyl]piperazin-1-yl}methyl)-3-hydroxyandrostan-17-one]",Intact cells (%) (0.1 μM),17β-HSD3 [1]; Table 3,25%
same,Homo (%) (0.01 μM),17β-HSD3 [2]; Table 3,25%
same,Homo (%) (0.1 μM),17β-HSD3 [2]; Table 3,83%
"CC1CN(C[C@@]2(O)CC[C@@]3(C)[C@@H](CC[C@@H]4[C@@H]3CC[C@]3(C)C(=O)CC[C@@H]43)C2)C(C)CN1Cc1cc(C(F)(F)F)ccc1C(F)(F)F (stereo partly drawn) [Compound 11h, (3α,5α)-3-({(2ξ,5ξ)-4-[2,5-bis(trifluoromethyl)benzyl]-2,5-dimethylpiperazin-1-yl}methyl)-3-hydroxyandrostan-17-one]",Intact cells (%) (0.1 μM),17β-HSD3 [1]; Table 3,23%
same,Homo (%) (0.01 μM),17β-HSD3 [2]; Table 3,16%
same,Homo (%) (0.1 μM),17β-HSD3 [2]; Table 3,71%
"CC1CN(CC2(O)CCC3(C)C(CCC4C5CCC(=O)C5(C)CCC43)C2)C(C)CN1Cc1ccc(C(F)(F)F)cc1C(F)(F)F (stereo not drawn) [Compound 11i, (3α,5α)-3-({(2ξ,5ξ)-4-[2,4-bis(trifluoromethyl)benzyl]-2,5-dimethylpiperazin-1-yl}methyl)-3-hydroxyandrostan-17-one]",Intact cells (%) (0.1 μM),17β-HSD3 [1]; Table 3,21%
same,Homo (%) (0.01 μM),17β-HSD3 [2]; Table 3,15%
same,Homo (%) (0.1 μM),17β-HSD3 [2]; Table 3,71%
"CC1CN(C[C@@]2(O)CC[C@@]3(C)[C@@H](CC[C@@H]4[C@@H]3CC[C@]3(C)C(=O)CC[C@@H]43)C2)C(C)CN1Cc1cc(C(F)(F)F)cc(C(F)(F)F)c1 (stereo partly drawn) [Compound 11j, (3α,5α)-3-({(2ξ,5ξ)-4-[3,5-bis(trifluoromethyl)benzyl]-2,5-dimethylpiperazin-1-yl}methyl)-3-hydroxyandrostan-17-one]",Intact cells (%) (0.1 μM),17β-HSD3 [1]; Table 3,16%
same,Homo (%) (0.01 μM),17β-HSD3 [2]; Table 3,25%
same,Homo (%) (0.1 μM),17β-HSD3 [2]; Table 3,74%
"C[C@]12CC[C@](O)(CN3CCN(C(=O)c4ccccc4)CC3)C[C@@H]1CC[C@@H]1[C@@H]2CC[C@]2(C)C(=O)CC[C@@H]12 [Compound 12a, (3α,5α)-3-hydroxy-3-{[4-(phenylcarbonyl)piperazin-1-yl]methyl}androstan-17-one]",inhibition at 0.1 µM,"17β-HSD3 [1]; read-out: Intact cells (%) (0.1 μM), Table 3",50%
same,inhibition at 0.01 µM,"17β-HSD3 [2]; read-out: Homo (%) (0.01 μM), Table 3",17%
same,inhibition at 0.1 µM,"17β-HSD3 [2]; read-out: Homo (%) (0.1 μM), Table 3",76%
"C[C@]12CC[C@](O)(CN3CCN(C(=O)C4CCCCC4)CC3)C[C@@H]1CC[C@@H]1[C@@H]2CC[C@]2(C)C(=O)CC[C@@H]12 [Compound 12b, (3α,5α)-3-{[4-(cyclohexylcarbonyl)piperazin-1-yl]methyl}-3-hydroxyandrostan-17-one]","Intact cells (%), tested at 1 μM","17β-HSD3 [1]; Table 3, footnote b, 1 μM",N/A (70)^b %
same,Homo (%) (0.01 μM),17β-HSD3 [2]; Table 3,19%
same,Homo (%) (0.1 μM),17β-HSD3 [2]; Table 3,75%
"C[C@]12CC[C@](O)(CN3CCN(C(=O)c4cccc(C(F)(F)F)c4)CC3)C[C@@H]1CC[C@@H]1[C@@H]2CC[C@]2(C)C(=O)CC[C@@H]12 [Compound 12d, (3α,5α)-3-hydroxy-3-[(4-{[3-(trifluoromethyl)phenyl]carbonyl}piperazin-1-yl)methyl]androstan-17-one]",inhibition at 0.1 µM,17β-HSD3 [1]; [3],91%
same,inhibition at 0.01 µM,17β-HSD3 [2]; [4],10%
same,inhibition at 0.1 µM,17β-HSD3 [2]; [5],92%
"C[C@]12CC[C@](O)(CN3CCN(C(=O)c4ccc(C(F)(F)F)cc4)CC3)C[C@@H]1CC[C@@H]1[C@@H]2CC[C@]2(C)C(=O)CC[C@@H]12 [Compound 12e, (3α,5α)-3-hydroxy-3-[(4-{[4-(trifluoromethyl)phenyl]carbonyl}piperazin-1-yl)methyl]androstan-17-one]",inhibition at 0.1 µM,17β-HSD3 [1]; [3],56%
same,inhibition at 0.01 µM,17β-HSD3 [2]; [4],22%
same,inhibition at 0.1 µM,17β-HSD3 [2]; [5],84%
"C[C@]12CCC(=O)C=C1CC[C@@H]1[C@@H]2CC[C@]2(C)C(=O)CC[C@@H]12 [Δ^4-dione, 4-androstene-3,17-dione, reference compound]",IC50,"17β-HSD3 [1]; intact HEK-293 cells overexpressing 17β-HSD3, [14C]-Δ4-dione 50 nM",0.337 µM
